In patent US20010005714A1, “AMPHIPATHIC MOLECULES AS CHOLESTEROL AND OTHER LIPID UPTAKE INHIBITORS” (priority 1996, published 2001):

How the values were obtained:
[1] = test system: brush border membrane vesicles (BBMV); test: IC50 of cholesteryl oleate uptake at the brush border membrane (Example 6); format: biochemical, rabbit; settings: donor 0.1 mg total lipid/ml, acceptor 2 mg protein/ml; 20 min at 25° C.
Description: An appropriate amount of inhibitor dissolved in 84.5 μl buffer (0.05 M Tris pH 7.4, 0.15 M NaCl) is mixed in an Eppendorf tube at time zero with 5 μl of a dispersion of donor and 10.5 μl of a dispersion of acceptor (i.e. brush border membrane vesicles (BBMV)) in the same buffer. The final concentration of the donor vesicles was 0.1 mg total lipid/ml, that of the acceptor was 2 mg protein/ml. The resulting mixture was incubated for 20 min at 25° C., and the reaction was stopped by adding 60 μl of the incubation medium to 120 μl ice-cold bufferin an airfuge tube. The diluted dispersion was immediately centrifuiaed in the airfuge at […] for 2 min. at 4° C. to separate donor vesicles from BBMV. Two 60 μl aliquots of the donor (=supernatant) were counted in a Beckman LS-7500 liquid scintillating counter to determine the radioactivity remaining in tbe donor.
Small unilamellar egg phosphatidycholine (PC) vesicles containing 1 mol % of cholesterol oleate and a trace amount of ^3H-cholesterol oleyl ether were made by dissolving the appropriate amounts of the lipids in CHCl3/CH3OH, (2:1, by vol.), taking the solution to dryness on a rotary evaporator and drying the residue in vacuo. The dried lipid film was dispersed in the appropriate volume of buffer by hand-shaking. The lipid dispersion was subjected to tip sonication as described in Brunner et al, J. Biol. Chem. 253 7538-7546 (1978). The resulting donor dispersion in buffer was centrifuged in the airfuge at 100000 g for 2 min at […]. Only the top 80% of the donor dispersion after centrifugation was used in the lipid uptake experiment.
BBMV were prepared from frozen rabbit small intestine according to Hauser et al (Biochim. Biophys. Acta 602 567-577 (1980)). Prior to use in the uptake experiment determining IC50 values the BBMV were washed to remove any free protein liberated from the BBM. To this end the BBMV dispersion was diluted with buffer 1:1 in an airfuge tube, and the diluted dispersion was centrifuged in the airfuga at 100000 g for 2 min at […]. The supernatant was is carefully decanted, the pellet was resuspended in buffer to the original volume of the BBMV dispersion, and the dispersion was homogenized. […]

normal human BBMV = test: [14C]Cholesterol uptake from egg PC vesicles by normal human duodenal BBMV; format: biochemical
Description: (§1) Biopsy samples from human duodenum, 20 to 30 mg of wet tissue each, were suspended in 200 μl buffer (12 mM Tris HCl pH 7.2, 300 mM mannitol, 5 mM EGTA, 1 mM phenylmethylsulfonyl fluoride), frozen in liquid nitrogen and stored at −80° C. prior to use. BBMV were prepared by Mg^+2 precipitation (Hauser et al, Biochim. Biophys. Acta 602 567-577 (1980)) as described in detail by Booth et al (Lancet 1 1066-1069 (1985)). Proteinase K treatment of the BBMV was carried out according to Thurnhofer and Hauser (Biochim. Biophys. Acta 1024 249-262 (1990)). […] Small unilamellar phesrholipid vesicles were prepared by tip sonication (Schulthess, Biochemistry 33 4500-4508 (1994)).
(I) Egg PC small unilamellar vesicles containing […] (^14C] cholesterol and BBMV both dispersed in 10 mM Tris-HCl pH 7.2, 0.15 M NaCl, 5 mM EDTA were incubated at room temperature. After timed intervals phospholipid vesicles and BBMV were separated by centrifugation at 115000 g for 2 min in a Beckman airfuge. The radioactivities present in pellet and supernatant were determined by counting aliquots in a Beckman LS 7500 liquid scintillatior counter. Fusion of egg PC small unilamellar vesicles and BBMV as a possible mechanism of cholesterol uptake was ruled out as discussed in detail in previous studies (Thurnhofer and Hauser, Biochemistry 29 2142-2148 (1990); Compassi, Biochemistry 34 16473-16482 (1995) and Schulthess, J. Lipid. Res. 37 2405-2419 (1996)).
The experimental data were computer-fitted using the following equation valid for single-exponential exchange reactions: X=X∞+[XO−X∞]e^-k1^[(a+b)/a]t, where XO, X and X∞represent the fractions of the labelled lipid in the donor at times 0, t and at equilibrium, respectively. K1 is the pseudo-first-order rate constant of the reaction and a and b are the lipid pools of acceptor and donor, respectively (McKay, Nature 142 997-998 (1938) and Mutsch et al, Biochemistry 25 2134-2140 (1986).
(§2) Kinetic measurements were also carried out in the presence of inhibitors; synthetic peptides or apolipoproteins were added to the […] of donor and acceptor vesicles. Cholesterol uptake by native and proteinase K treated BBMV was determined in the presence of increasing concentrations of Ac-18A-NH2, the difference between cholesterol uptake by native and proteinase K treated BBMV is referred as protein-mediated cholesterol uptake in FIG. 6. The IC50 values were determined according to Methods Enzymol. 37 3-22 (1975).

[2] = test system: abetalipoproteinemic BBMV; test: [14C]Cholesterol uptake from egg PC vesicles by abetalipoproteinemic BBMV; format: biochemical, human; settings: donor egg PC vesicles 0.01 mg lipid/ml, acceptor abetalipoproteinemic BBMV 0.25 mg lipid/ml; read-out: Inhibition IC50: concentration required to reduce protein-mediated cholesterol uptake by 50%
Description: as §1, with “(1994)). […]” for “(1994)).”
as §2, with “37 3-22 (1975).” left out

[3] = biological target: proteinase K-treated normal BBMV; test: [14C]Cholesterol uptake from egg PC vesicles by proteinase K-treated normal BBMV; format: biochemical, human
Description: as §1, with “(1994)). […]” for “(1994)).”
as §2, with “37 3-22 (1975).” left out

[4] = [14C]Cholesterol transfer from egg PC vesicles to egg PC/egg PA vesicles; format: biochemical
Description: (II) Similarly, egg PC small unilamellar vesicles containing 1 mol % [^14C] cholesterol as the donor and small unilamellar vesicles of egg PC/egg PA (85:15, mole ratio) as the acceptor were incubated at room temperature. After timed intervals aliquots of the incubation mixture were filtered through DEAE Sepharose C1-CB columns, which retained the negatively charged vesicles. Pure egg PC vesicles were eluted and their radioactivity determined.
as §2

BBMVs = test: Inhibition of cholesteryl oleate uptake by BBMVs by peptides of varying lengths (Example 8); format: biochemical; settings: 120 μg peptide/ml
Description: going from one peptide to the other (top→bottom) 3 amino acids were removed from the N-terminus. The inhibitory effect of the four peptides listed above were compared at 120 μg peptide/ml. The lipid uptake by BBMVs was measured in the presence of 120 μg peptide/ml each as described below.
Donor and acceptor particles dispersed in Tris/NaCl buffer were centrifuged in a Beckman airfuge at 115000 g is for 2 min at 4° C. The dispersion of the acceptor yielded a pellet which was resuspended in Tris/NaCl buffer. Varying amounts of inhibitor dissolved in the same buffer were added to the acceptor dispersion and at time zero the dispersiorn of acceptor with or without inhibitor was mixed with the top 80% of the supernatant obtained by centrifugation of the donor dispersion. The final concentration of the donor was 0.05 mg total lipid/ml and that of the acceptor was 5 mg protein/ml. The resulting dispersion was incubated at 23° C. and after timed intervals the sterol uptake was stopped by dilution of the incubation medium with 2 volumes of Tris/NaCl buffer. BBMV were separated from the donor by centrifugation in the Beckman airfuge at 115000 g for 2 min at 4° C. The radioactivities in the supernatant containing the donor and in the pellet containing the BBMV (acceptor) were determined in a Beckman LS 7500 scintillation counter.

Substance: Ac-Asp-Trp-Leu-Lys-Alα-Phe-Tyr-Asp-Lys-Val-Alα -Glu-Lys-Leu-Lys-Glu-Alα-Phe-NH2 [Ac-18A-NH2, amphipathic α-helix of class A peptide, N-acetylated and C-amidated 18A]
- IC50 [1]: 16 ± 1 µM
- IC50 (μg/mL) of cholesteryl oleate uptake at the brush border membrane [1]: 35 ± 2 µg/mL
- effect on passive cholesterol transfer (in words) (normal human BBMV): no inhibitory effect
- half time of residual cholesterol uptake by native BBMV not inhibited by the peptide (normal human BBMV; 60 μM Ac-18A-NH2): 6.7 ± 1.4 h
- IC50 (normal human BBMV; donor egg PC vesicles 0.01 mg lipid/ml, acceptor normal human BBMV 0.25 mg lipid/ml, 20 min, read-out: Inhibition IC50: concentration required to reduce protein-mediated cholesterol uptake by 50%): 23 ± 1 µM
- inhibition of protein-mediated cholesterol uptake (in words) (normal human BBMV; human duodenal BBMV): effectively and completely inhibited
- IC50 [2]: 23 ± 3 µM
- Inhibition IC50 ([3]; donor egg PC vesicles 0.01 mg lipid/ml, acceptor proteinase K-treated normal BBMV 0.25 mg lipid/ml): no inhibition
- inhibitory effect on cholesterol uptake (in words) ([3]; proteinase K-treated BBMV): no inhibitory effect
- inhibitory effect on cholesterol transfer between phospholipid vesicles (in words) [4]: no inhibitory effect
- Inhibition IC50 ([4]; donor egg PC vesicles 0.01 mg lipid/ml, acceptor egg PC/egg PA vesicles 0.25 mg lipid/ml): no inhibition
- inhibitory effect on cholesteryl oleate uptake (in words, footnote) (BBMVs): Useful inhibitory effect is seen with Peptides Nos. 1 and 2.
- Inhibition of Cholesteryloleate Uptake In. % (BBMVs; donor 0.05 mg total lipid/ml, acceptor 5 mg protein/ml, 23° C.): 100%
